This note sets out measurements from ChEMBL document CHEMBL1154751, “Evaluation of di-sansalvamide A derivatives: synthesis, structure-activity relationship, and mechanism of action” (J Med Chem, 2009).

The term IC50 denotes the concentration that inhibits the measured activity by half. Higher therefore signals lower potency.

The nature of experiment [1]: Growth inhibition of human PL45 cells after 24 hrs by [3H]thymidine uptake assay. In kind it is functional, cell-based.
Experiment [2] in a line: Growth inhibition of human PL45 cells at 1 nM after 24 hrs by [3H]thymidine uptake assay. It is filed as functional. Particulars: read-out: GI.
Experiment [3] can be described thus: Growth inhibition of human PL45 cells at 62.5 nM after 24 hrs by [3H]thymidine uptake assay. In kind it is functional. Particulars: read-out: GI.
Experiment [4] in a line: Growth inhibition of human PL45 cells at 125 nM after 24 hrs by [3H]thymidine uptake assay. In kind it is functional. Conditions: read-out: GI.
A short description of experiment [5]: Growth inhibition of human PL45 cells at 250 nM after 24 hrs by [3H]thymidine uptake assay. It is filed as functional. Particulars: read-out: GI.
Experiment [6] can be described thus: Growth inhibition of human PL45 cells at 500 nM after 24 hrs by [3H]thymidine uptake assay. Conditions: read-out: GI. In kind it is functional.
The nature of experiment [7]: Growth inhibition of human PL45 cells at 1000 nM after 24 hrs by [3H]thymidine uptake assay. It is filed as functional. Conditions: read-out: GI.
Experiment [8] concerns HCT-116. Put plainly: Growth inhibition of human HCT116 cells after 24 hrs by [3H]thymidine uptake assay. It is filed as functional, cell-based.
The test system of experiment [9] is HCT-116. The experiment can be described thus: Growth inhibition of human HCT116 cells at 10 nM after 24 hrs by [3H]thymidine uptake assay. In kind it is functional. Particulars: read-out: GI.
The test system of experiment [10] is HCT-116. The experiment can be described thus: Growth inhibition of human HCT116 cells at 20 nM after 24 hrs by [3H]thymidine uptake assay. In kind it is functional. Conditions: read-out: GI.
In experiment [11] the test system is HCT-116. Put plainly: Growth inhibition of human HCT116 cells at 50 nM after 24 hrs by [3H]thymidine uptake assay. In kind it is functional. Particulars: read-out: GI.
The subject of experiment [12] is HCT-116. The experiment can be described thus: Growth inhibition of human HCT116 cells at 100 nM after 24 hrs by [3H]thymidine uptake assay. It is filed as functional. Particulars: read-out: GI.
Experiment [13] deals with HCT-116. The experiment can be described thus: Growth inhibition of human HCT116 cells at 200 nM after 24 hrs by [3H]thymidine uptake assay. In kind it is functional. Particulars: read-out: GI.
Experiment [14] can be described thus: Growth inhibition of human WS1 cells at 1 nM after 24 hrs by [3H]thymidine uptake assay. In kind it is functional. Conditions: read-out: GI.
Experiment [15] is described as follows: Growth inhibition of human WS1 cells at 62.5 nM after 24 hrs by [3H]thymidine uptake assay. In kind it is functional. Conditions: read-out: GI.
A short description of experiment [16]: Growth inhibition of human WS1 cells at 125 nM after 24 hrs by [3H]thymidine uptake assay. In kind it is functional. Particulars: read-out: GI.
Experiment [17] is described as follows: Growth inhibition of human WS1 cells at 250 nM after 24 hrs by [3H]thymidine uptake assay. It is filed as functional. Particulars: read-out: GI.
Experiment [18] can be described thus: Growth inhibition of human WS1 cells at 500 nM after 24 hrs by [3H]thymidine uptake assay. It is filed as functional. Conditions: read-out: GI.
The nature of experiment [19]: Growth inhibition of human WS1 cells at 1000 nM after 24 hrs by [3H]thymidine uptake assay. In kind it is functional. Conditions: read-out: GI.
Experiment [20] is described as follows: Growth inhibition of human WS1 cells after 24 hrs by [3H]thymidine uptake assay. In kind it is functional, cell-based.

SMILES strings stand for the structures.

As to `C=CCNC1=C2C[C@@H](C)C[C@H](OC)[C@H](O)[C@@H](C)/C=C(\C)[C@H](OC(N)=O)[C@@H](OC)/C=C\C=C(/C)C(=O)NC(=CC1=O)C2=O` [TANESPIMYCIN], the values for the IC50 (in [1]; in the experiment with HCT-116 [8]; in [20]) were 7.7 nM, 56.5 nM and 31.8 nM, respectively. Besides, the inhibition of growth at 0.001 µM was found to be 11.4% in [2] and 18% in experiment [14]. Moreover, the inhibition of growth at 0.0625 µM in experiment [3] stood at 98%; in [15] it was 51.7%. For the same compound, the results for the inhibition of growth at 0.125 µM in [4] and in experiment [16] were 99% and 73.2%, respectively. Also, the values for the inhibition of growth at 0.25 µM in experiment [5] and in experiment [17] were 99% and 66%, respectively. Further, the inhibition of growth at 0.5 µM in experiment [6] is 99%; in experiment [18], 76.3%. Besides, the inhibition of growth at 1 µM in [7] worked out at 99%; in experiment [19] it was 77.8%. Also, the inhibition of growth at 0.01 µM with HCT-116 [9] is 0%. Besides, in the experiment on HCT-116 [10], the inhibition of growth at 0.02 µM was found to be 12%. In addition, in the experiment on HCT-116 [11], the inhibition of growth at 0.05 µM was determined as 54%. In addition, the inhibition of growth at 0.1 µM in the experiment with HCT-116 [12] worked out at 72%. Besides, the inhibition of growth at 0.2 µM in the experiment on HCT-116 [13] came out at 79%.
